Like-named read-outs stand apart in the source and are kept apart here.
Experiments:
[1] = test system: tumor cells LNCaP; assay: Anti-tumor activity assay (chemiluminescence CTG cell viability), LNCaP; assay type: cell-based; settings: for IC50: Homo sapiens, 72 h, CTG chemiluminescence
Description: (§1) The frozen tumor cells (prostate cancer, ovarian cancer, etc.) were taken out from liquid nitrogen, and quickly dissolved at 37° C. The cells were added to 5 ml of the corresponding medium containing FBS and centrifuged at 300 g for 5 minutes. The precipitate was collected, resuspended with the corresponding medium and then mixed well. After that, cells were added to a 24-well cell culture dish, supplemented with the medium to a total volume of 2 mL per well at 37° C. and cultured. After the confluence reached about 90%, subculturing or counting and plating was performed.
(§2) After the cultured tumor cells were sufficient to be passaged, they were digested with trypsin and a single cell suspension was prepared. After counting, cells were adjusted to a concentration of 1.2×10^4 cells/ml with the corresponding medium. 90 μl of the mixed solution was added to a 96-well plate and incubated at 37° C. for 30 minutes. Then the mixture was added with the corresponding medium and incubated in a cell incubator at 37° C. overnight. The morphology and confluence of tumor cells were observed.
(§3) After the tumor cells were cultured overnight, serial dilutions of the compounds were prepared and added to the culture system.
(§4) The stock solution of the indazole hydrazide compound (100 mM) dissolved in DMSO was fully dissolved at room temperature. If there was any insoluble matter, heating and ultrasonication were carried out for 5 minutes to observe until dissolution.
(§5) 20 μl DMSO was added to wells 2-9 of a 96-well V-shaped compound dilution plate, and 30 μl stock solution was added to well 1. The compound dilution plate was placed on a shaking mixer. 10 μl liquid was transferred from well 1 to well 2, mixed well by pipetting and shaking, then 10 μl of liquid was transferred from well 2 to well 3, mixed well by pipetting and shaking, and so on . . . and finally 10 μl of liquid was transferred from well 8 to well 9, mixed well by pipetting and shaking, and 1000× gradient dilution stock solution was prepared. [Note: As DMSO easily absorbs moisture in the air, after the operation, the compound dilution plate was immediately sealed with parafilm, stored at 4° C., and discarded after 1 week. When using it again, the parafilm was removed after the temperature reached room temperature to avoid inaccurate concentration caused by moisture absorption.]
(§6) In the ultra-clean workbench, a 96-well sterile cell culture plate was used. 198 μl of medium was added to wells 1-9, and 2 μl of the stock solution in wells 1-9 of the 1000× stock solution was transferred to the corresponding wells 1-9 of the 96-well sterile cell culture plate, mixed well by pipetting and shaking, and […] was prepared. This stock solution needed to be prepared and used on the same day.
(§7) 10 μl of the 10× stock solution prepared on the day was added to the cell culture medium.
(§8) It was incubated for 72 h at 37° C. under 5% carbon dioxide conditions.
(§9) Chemiluminescence method was used to measure ATP level of cells to evaluate cell viability. The specific operation was performed in accordance with the instructions. After the incubation, 50 μL of CTG solution was added. After mixing well, the lysis mixture was transferred to a microplate reader. After 5-10 minutes, the chemiluminescence data were gathered in the microplate reader. Excel software was used to analyze and process the data, and GraphPad Prism 7 software was used to calculate IC50 according to the fitted dose-effect curve generated by the chemiluminescence data.
(§10) In this test, Z factor was used as a quality control indicator. Z′ factor was defined by 4 parameters: the mean (μ) and standard deviation (σ) of the positive control (positive, p) and the negative control (negative, n).
(§11) The negative control group was the untreated group with the addition of solvent (DMSO); the positive control was 2.5 μM BEZ235 or 1 μM Staurosporine. […]

[2] = test system: tumor cells 22RV1; assay: Anti-tumor activity assay (chemiluminescence CTG cell viability), 22RV1; assay type: cell-based; settings: 22RV1 cells; for Hillslope 22RV1: fitted dose-effect curve; for IC50: Homo sapiens, 72 h, CTG chemiluminescence
Description: as §1, §2, §3, §4, §5, §6, §7, §8, §9, §10, §11

[3] = test system: HUVEC cells; assay: 2D angiogenesis experiment (HUVEC on Matrigel); assay type: cell-based, human; settings: VEGF, 4 h
Description: 3.1 Evaluation of Anti-Angiogenesis of Compounds by 2D Angiogenesis Experiment:
(1) In a 96-well plate, 50 ul of 100% Matrigel was added to each well and air bubbles should be avoided. The plate was then placed in a 37° C. incubator for 45 minutes.
(2) When the confluence of HUVEC cells in good growth state reached about 80%, the cells were digested, and resuspended in HUVEC complete medium. 40 uL of resuspension was added to each well in triplicate at a concentration of 4×10000 cells/well.
(3) 5 uL of compounds with three concentrations of high, medium and low was added to the test compound group. In the VEGF group, 5 uL of culture medium containing 200 ng/ml VEGF was added. In the solvent group, 10 uL culture medium was supplemented.
(4) Cells were incubated in a 37° C. 5% CO2 incubator for 4 h, and photos of each well were taken.

[4] = test system: tumor cells and HUVEC cells spheroids; assay: 3D co-culture of tumor cells and HUVEC cells anti-angiogenesis experiment; assay type: cell-based, human; settings: 0.3 μM, 1.0 μM, day 2 and day 5, VEGF 20 ng/mL
Description: 3.2 Experiments of Evaluating Anti-Angiogenesis of Compounds by 3D Co-Culture of Tumor Cells and HUVEC Cells: • (1) 25,000 tumor cells and 25,000 HUVEC cells were mixed and plated in a low-adsorption 24-well plate. Cells were shaken horizontally in a 37° C. incubator and placed for 24 h to form a suspension of Spheroids. • (2) 40 uL of 10% Matrigel was added to each well, and placed at 37° C. for 45 min to crosslink and harden the gel. 40 uL of suspension with Spheroids was added to wells. • (3) After 24 h, 10 uL of compounds with three concentrations of high, medium and low was added to the test compound group. In the VEGF group, 10 uL of culture medium containing 200 ng/ml VEGF was added. In the solvent group, 20 uL culture medium was supplemented. • (4) Cells were incubated in a 37° C. 5% CO2 incubator for 0, 2, 5, and 7 days, and photos of each well were taken.
Bright-field photos were taken under the microscope, scale bar=100 μm. The imageview software measurement tool was used to count the length of the blood vessels generated by one organoid. The average of the total length of blood vessels was calculated. It was compared with the 20 ng/ml VEGF group. *p<0.05, **p<0.01. Error bars indicate ±SEM.
In the 3D […] experiment, the following conclusions can be drawn based on the bright field photos and the total length of blood vessels on 0, 2, 5, and 7 days after addition of drugs: […]

[5] = biological target: integrin protein αvβ3 (Homo sapiens, UniProt P05106+P06756); assay: Affinity test by surface plasmon resonance (Biacore 8K); assay type: binding
Description: The surface plasmon resonance instrument Biacore 8K was used to analyze the interaction between the compound and the integrin protein αvβ3. First, the system temperature was set to 25° C., and the flow rate to […]. PBS buffer was passed until the baseline was stable.
Without activating the surface of the chip, the integrin αvβ3 protein sample was dissolved in sodium acetate buffer with different pH values (pH=4, 4.5, 5) to make it carry different amounts of charge. Then the integrin protein sample flowed through the surface of the chip at a flow rate of 10 μL/min. Through the binding curve of integrin and the chip, a appropriate pH condition (pH=4.0) was determined. Finally, 50 mM NaOH eluate was injected to wash away the protein adsorbed on the chip surface.
CM5 chip was selected. The protein coupling was operated according to the amino coupling method, and the coupling steps are as follows: • (1) Activation: NHS/EDC mixture (0.1 M NHS and 0.4 M EDC, mixed at a volume ratio of 1:1 before use, and used immediately) was injected for 800 s at a flow rate of 10 μL/min, to activate the carboxyl of glucan on the surface of the chip; • (2) Immobilization: 20 ng/μL integrin αvβ3 protein solution was prepared with the buffer with the pH value determined in the pretreatment, and was injected for 800 s at a flow rate of 10 μL/min; • (3) Blocking: 1 M ethanolamine hydrochloride was used to block for 800 s to complete the immobilization process of the protein. 4.1.4 Binding Experiment
The compound to be tested was dissolved in PBS-P buffer (1.0×PBS, pH7.4, 0.15M Nacl, 0.05% tween-20), to prepare to a concentration of 50 μM. It was injected at a flow rate of 10 μL/min for a preliminary binding analysis.
The compound that was positive in the preliminary analysis was then prepared with buffers to a concentration gradient of 50 μM, 25 μM, 12.5 μM, 6.3 μM, 3.1 μM, 1.6 μM, 0.78 μM, 0.39 μM, 0.097 μM, 0.024 μM, and 0.0061 μM, and SB273005 was used as a positive control for a kinetic constant analysis.

[6] = test system: prostate cancer DU145 cells; assay: Anti-tumor activity assay (chemiluminescence), DU145; assay type: cell-based; settings: FIG. 21-22
Description: as §1
as §2, with “observed. […]” for “observed.”
(§12) Chemiluminescence method was used to measure ATP level of cells to evaluate cell viability. […] After mixing well, the lysis mixture was transferred to a microplate reader. After 5-10 minutes, the chemiluminescence data were gathered in the microplate reader. […]

[7] = test system: prostate cancer PC-3 cells; assay: Anti-tumor activity assay (chemiluminescence), PC-3; assay type: cell-based; settings: FIG. 21-22
Description: as §1
as §2, with “observed. […]” for “observed.”
as §12

[8] = test system: drug-resistant 22RV1 cells; assay: Combination with enzalutamide on 22RV1 cells (chemiluminescence); assay type: cell-based; settings: in combination with enzalutamide, enzalutamide-resistant 22RV1 cells, FIG. 23
Description: as §9

[9] = test system: melanoma cell WM115; assay: Anti-tumor activity assay (chemiluminescence), WM115; assay type: cell-based; settings: WM115 cells, FIG. 21-22
Description: as §1
as §2, with “observed. […]” for “observed.”
as §12

[10] = test system: ovarian cancer cell OVCAR-4; assay: Anti-tumor activity assay (chemiluminescence), OVCAR-4; assay type: cell-based; settings: OVCAR-4 cells, FIG. 21-22
Description: as §1
as §2, with “observed. […]” for “observed.”
as §12

[11] = test system: vascular endothelial cell HUVEC-T11; assay: Activity assay (chemiluminescence), HUVEC-T11; assay type: cell-based; settings: HUVEC-T11 cells, FIG. 21-22
[12] = test system: microvascular endothelial cell HMEC-1; assay: Activity assay (chemiluminescence), HMEC-1; assay type: cell-based; settings: HMEC-1 cells, FIG. 21-22
[13] = SPR, immobilized integrin αvβ3, 25° C., read-out: KD affinity

Chain of integrin protein αvβ3 (P06756 31-1048): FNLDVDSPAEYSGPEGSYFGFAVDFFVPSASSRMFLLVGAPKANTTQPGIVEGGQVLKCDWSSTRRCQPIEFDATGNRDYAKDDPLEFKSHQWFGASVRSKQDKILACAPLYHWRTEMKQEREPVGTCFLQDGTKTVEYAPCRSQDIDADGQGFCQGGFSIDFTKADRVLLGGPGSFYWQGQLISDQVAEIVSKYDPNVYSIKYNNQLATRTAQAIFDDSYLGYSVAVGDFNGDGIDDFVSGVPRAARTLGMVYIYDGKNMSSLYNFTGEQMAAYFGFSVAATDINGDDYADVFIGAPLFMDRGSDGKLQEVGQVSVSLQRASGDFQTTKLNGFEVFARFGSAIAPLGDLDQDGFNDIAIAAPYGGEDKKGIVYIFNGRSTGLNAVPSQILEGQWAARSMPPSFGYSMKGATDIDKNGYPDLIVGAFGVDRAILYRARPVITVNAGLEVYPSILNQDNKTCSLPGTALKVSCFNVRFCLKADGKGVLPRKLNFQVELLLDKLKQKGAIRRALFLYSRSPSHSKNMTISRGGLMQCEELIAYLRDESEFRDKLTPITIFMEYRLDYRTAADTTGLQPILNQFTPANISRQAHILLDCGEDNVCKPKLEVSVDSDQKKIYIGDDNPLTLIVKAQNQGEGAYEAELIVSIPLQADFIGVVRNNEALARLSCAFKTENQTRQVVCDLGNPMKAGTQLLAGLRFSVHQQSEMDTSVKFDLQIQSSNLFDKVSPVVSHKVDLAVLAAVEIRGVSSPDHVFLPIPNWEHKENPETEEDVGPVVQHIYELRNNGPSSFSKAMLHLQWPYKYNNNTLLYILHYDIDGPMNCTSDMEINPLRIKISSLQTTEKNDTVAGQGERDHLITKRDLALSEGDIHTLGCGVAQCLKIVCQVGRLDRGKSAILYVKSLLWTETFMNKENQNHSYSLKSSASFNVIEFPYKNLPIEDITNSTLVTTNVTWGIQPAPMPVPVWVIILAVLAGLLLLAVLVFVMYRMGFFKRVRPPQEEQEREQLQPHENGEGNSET
Chain of integrin protein αvβ3 (P05106 27-788): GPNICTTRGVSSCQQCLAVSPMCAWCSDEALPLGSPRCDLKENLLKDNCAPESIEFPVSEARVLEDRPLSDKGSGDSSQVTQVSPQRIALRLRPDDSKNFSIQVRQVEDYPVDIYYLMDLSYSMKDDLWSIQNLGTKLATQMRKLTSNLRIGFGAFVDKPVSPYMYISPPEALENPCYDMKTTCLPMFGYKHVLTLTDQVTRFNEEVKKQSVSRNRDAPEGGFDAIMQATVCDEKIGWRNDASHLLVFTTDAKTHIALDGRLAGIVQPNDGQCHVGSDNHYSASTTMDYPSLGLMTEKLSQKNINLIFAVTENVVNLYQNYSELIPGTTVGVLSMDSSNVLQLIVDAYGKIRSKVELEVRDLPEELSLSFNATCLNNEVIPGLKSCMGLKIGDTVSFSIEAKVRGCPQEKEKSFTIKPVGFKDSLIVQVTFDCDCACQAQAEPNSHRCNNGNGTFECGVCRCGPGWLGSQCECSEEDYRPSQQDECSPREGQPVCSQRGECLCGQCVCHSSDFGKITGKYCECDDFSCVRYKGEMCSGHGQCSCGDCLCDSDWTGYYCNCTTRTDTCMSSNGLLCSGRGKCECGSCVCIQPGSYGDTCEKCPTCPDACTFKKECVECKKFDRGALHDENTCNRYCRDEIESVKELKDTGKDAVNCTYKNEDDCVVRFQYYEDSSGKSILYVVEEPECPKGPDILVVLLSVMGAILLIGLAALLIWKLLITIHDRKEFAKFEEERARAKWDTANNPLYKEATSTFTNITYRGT

| IC50 [1] | IC50 [2] | Kd [5, 13] | SMILES | Hillslope 22RV1 [2] | inhibition of microtubule formation [3] | also measured |
| --- | --- | --- | --- | --- | --- | --- |
| 19.6 µM | – | – | O=C(N/N=C/CCc1cccc(C(F)(F)F)c1)c1n[nH]c2c1CCCC2 [19-3] | – | – | – |
| 3.76 µM | 3.49 µM | – | O=C(N/N=C/c1ccc([N+](=O)[O-])cc1)c1n[nH]c2c1CCCC2 [19-8] | −1.177 | did not show any obvious inhibition | – |
| 1.09 µM | 0.47 µM | 0.78 µM | COc1ccc(/C=N/NC(=O)c2n[nH]c3c2CCCC3)cc1O [19-9] | −2.911 | significant inhibition | inhibition of angiogenesis (total length of blood vessels) compared with the VEGF group ([4]; 3.0 μM, FIG. 33-34): significantly inhibit angiogenesis |
| 0.36 µM | 0.25 µM | – | Cc1ccc(/C=N/NC(=O)c2n[nH]c3c2CCCC3)cc1 [19-4] | −4.343 | significant inhibition | inhibition of angiogenesis (total length of blood vessels) compared with the VEGF group ([4]; 0.1 μM, FIG. 32): significantly inhibit angiogenesis |
| 28.8 µM | – | – | C/C(CCc1ccc(O)cc1)=N\NC(=O)c1n[nH]c2c1CCCC2 [19-1] | – | – | – |
| 36.7 µM | 49.6 µM | 2.15 µM | O=C(N/N=C/c1c(O)cc(O)cc1O)c1n[nH]c2c1CCCC2 [19-5] | −2.689 | – | – |
| 4.27 µM | 4.08 µM | 10.1 µM | COc1ccc(/C=N/NC(=O)c2n[nH]c3c2CCCC3)cc1OC [19-7] | −13.53 | did not show any obvious inhibition | – |
| 19.6 µM | 364 µM | – | CC(C)C/C=C(/C=N/NC(=O)c1n[nH]c2c1CCCC2)c1ccccc1 [19-2] | −0.7631 | – | – |
| 1.41 µM | 0.86 µM | – | Cc1ccc(/C=N/NC(=O)c2n[nH]c3c2CCCC3)cc1O [19-6] | −3.273 | significant inhibition | inhibition of angiogenesis (total length of blood vessels) compared with the VEGF group ([4]; 3.0 μM, FIG. 33-34): significantly inhibit angiogenesis |
| – | – | – | O=C(N/N=C/c1cccc(O)c1)c1n[nH]c2c1CCCC2 [Formula (5)] | – | – | anti-tumor activity (activity curve) ([1]; FIG. 21-22): obvious anti-tumor activity; Kd ([5]; stated in summary text, read-out: KD value interacting with the protein αvβ3): 0.158 µM; anti-tumor activity (activity curve) [6]: obvious anti-tumor activity; anti-tumor activity (activity curve) [7]: obvious anti-tumor activity; effect of combination with enzalutamide [8]: synergistic effect; tumor-inhibiting effect (activity curve) [9]: highest tumor-inhibiting effect; anti-tumor activity (activity curve) ([2]; FIG. 21-22): obvious anti-tumor activity; inhibitory effect (activity curve) [10]: inhibitory effect; inhibitory effect (activity curve) [11]: inhibitory effect; inhibitory effect (activity curve) [12]: inhibitory effect |

— patent publication US12479805B2, “Indazole hydrazide compound and application thereof” (Beijing Baheal Chengchuang Pharmaceutical Research and …, priority 2021, dated 2025)
